# According to article PMC11279727, “Bioprospecting, Synergistic Antifungal and Toxicological Aspects of the Hydroxychalcones and Their Association with Azole Derivates against Candida spp. for Treating Vulvovaginal Candidiasis” (Pharmaceutics, 2024):
# Columns and labels:
# [1] = test system: Candida albicans ATCC 90028; test: In vitro susceptibility, CLSI M27-A3 broth microdilution (MIC/MFC); type: cell-based; conditions: for MFC / MIC50: ATCC90028, C. albicans ATCC 90028; for MIC: ATCC90028, C. albicans ATCC 90028, 37 °C 24 h
# Procedure: (§1) Susceptibility tests were performed according to the M27-A3 protocol proposed by the Clinical & Laboratory Standards Institute (CLSI) (2008). Briefly, 2-HC and 3′-HC were solubilized in dimethyl sulfoxide at 12.500 g/L and stored at −80 °C. […] The final concentration of 2-HC and 3′-HC in the RPMI medium was 0.24–125.0 mg/L. Dilutions of the compounds were performed in a 96-well microplate at a total volume of 100 μL/well. Fungal suspensions were prepared in 0.85% NaCl and were adjusted to a final concentration of 5 × 10^3 cells/mL. Then, 100 μL of the fungal suspension was added to all wells. Microplates were incubated at 37 °C for 24 h. […] Minimal inhibitory concentration (MIC) was considered the lowest concentration of the drug that inhibited the visible growth of yeast. […] Samples were processed in triplicate, and each experiment was carried out in triplicate.
# [2] = test system: Candida glabrata ATCC 90030; test: as above; type: cell-based; conditions: Nakaseomyces glabratus, ATCC90030; for MFC: C. glabrata ATCC 90030; for MIC: C. glabrata ATCC 90030, 37 °C 24 h
# Procedure: as §1
# Candida krusei ATCC 6258 [3] = test: as above; type: cell-based; conditions: Pichia kudriavzevii, ATCC6258; for MFC / MIC50: C. krusei ATCC 6258; for MIC: C. krusei ATCC 6258, 37 °C 24 h
# Procedure: as §1
# [4] = test system: Candida parapsilosis ATCC 22019; test: as above; type: cell-based; conditions: Lodderomyces parapsilosis, ATCC22019; for MFC: C. parapsilosis ATCC 22019; for MIC: C. parapsilosis ATCC 22019, 37 °C 24 h
# Procedure: as §1
# [5] = test system: Candida tropicalis ATCC 750; test: as above; type: cell-based; conditions: for MFC / MIC50: ATCC750, C. tropicalis ATCC 750; for MIC: ATCC750, C. tropicalis ATCC 750, 37 °C 24 h
# Procedure: as §1
# [6] = In vitro cytotoxicity (resazurin, 72 h); conditions: human
# Procedure: (§2) Cytotoxicity assays were performed on the C33A cell line (uterine cervical carcinoma epithelium) obtained from the ATCC (Manassas, VA, USA). 5 × 10^4 cells/well were added using RPMI medium with 10% fetal bovine serum into 96-well plates. Cells were incubated at 36.5 °C with 5% CO2 for 24 h to form a cell monolayer. 2-HC and 3′-HC were analyzed in range concentrations from 0.1–75 μg/mL. In combinations, 2-HC and 3′-HC were analyzed from 0.48–31.25 mg/L and 0.48–62.5 mg/L. Cells were exposed for 72 h, and after, cytotoxicity was assessed by adding 100 μL of resazurin (50 μM) and measured by a microplate reader at 570 nm–600 nm. A negative control with untreated cells (100% living cells) and a positive control (DMSO 40% to induce cell death) were also used. The results were evaluated in triplicate independent. […] Selective index (SI) was calculated using SI=IC50/MIC50 .
# [7] = test system: C33A cell line (uterine cervical carcinoma epithelium); test: In vitro cytotoxicity (resazurin, 72 h); conditions: Homo sapiens, C-33-A, 72 h
# Procedure: as §2
# [8] = test system: Candida albicans ATCC 90028; test: Combinatorial antifungal activity (checkerboard); type: cell-based; conditions: ATCC90028, C. albicans, drug alone in checkerboard, read-out: MIC80 (individual)
# From the text: (§3) Candida albicans ATCC 90028, Candida tropicalis ATCC 750, and Candida krusei ATCC 6258 were used. These species were selected for these assays because C. albicans is the most prevalent etiological agent in fungal infections caused by the genus Candida, and C. tropicalis is the most frequent non-albicans species. C. krusei was used to represent the species most resistant to azole drugs. Thus, 2-HC and 3′-HC were combined with FCZ and CTZ and associated with each other. Their combinatorial antifungal activity was determined through the checkerboard method using 96-well microplates, according to Bellio et al. (2021). […] Microplates were incubated at 37 °C for 24 h. […] The negative control was only the culture medium, and the positive control was composed of microorganisms and the culture medium. […] From this, it was calculated the fractional inhibitory concentration (FIC) and the fractional inhibitory concentration index (FICI) of each well of the interface as follows: […]
# Candida krusei ATCC 6258 [9] = test: Combinatorial antifungal activity (checkerboard); type: cell-based; conditions: Pichia kudriavzevii, ATCC6258; C. krusei, drug alone in checkerboard; read-out: MIC80 (individual)
# From the text: as §3
# [10] = test system: Candida tropicalis ATCC 750; test: Combinatorial antifungal activity (checkerboard); type: cell-based; conditions: drug alone in checkerboard; for MIC80 (individual): C. tropicalis; for MIC80: Candida tropicalis, ATCC750, C. tropicalis, read-out: MIC80 (individual)
# From the text: as §3
# C. albicans ATCC 90028 = test: Therapeutic efficacy in Galleria mellonella infected with C. albicans; type: in vivo; conditions: for efficacy in the antifungal activity: substances alone at MIC values and LCs, infected larvae
# [11] = test system: Mycobacterium tuberculosis; parameters: method as in PMID 34790584; conditions: cited from earlier work
# [12] = test system: Paracoccidioides brasiliensis; parameters: method as in PMID 34790584; conditions: cited from earlier work
# [13] = test system: Mycobacterium tuberculosis and Paracoccidioides brasiliensis mixed biofilm; parameters: method as in PMID 34790584; conditions: cited from earlier work
# C33A cell line = conditions: in the concentration ranges tested in the combinations
# Procedure: as §2
SMILES,MFC [1],MIC50 [1],MIC [1],MFC [2],MIC [2],MFC (Candida krusei ATCC 6258 [3]),MIC50 (Candida krusei ATCC 6258 [3]),MIC (Candida krusei ATCC 6258 [3]),MFC [4],MIC [4],MFC [5],MIC50 [5],MIC [5],"viability at 72 h, 9.38 mg/L [6]",IC50 [7],MIC80 [8],MIC80 (Candida krusei ATCC 6258 [9]),MIC80 (individual) [10],MIC80 [10],efficacy in the antifungal activity (C. albicans ATCC 90028),other results
"O=C(/C=C/c1ccccc1O)c1ccccc1 [2-HC, 2-hydroxychalcone]",> 125 µg/mL,15.6 µg/mL,31.3 µg/mL,> 125 µg/mL,15.6 µg/mL,125 µg/mL,15.6 µg/mL,7.8 µg/mL,15.6 µg/mL,7.8 µg/mL,> 125 µg/mL,7.81 µg/mL,31.3 µg/mL,> 80%,13 µg/mL,31.2 µg/mL,31.2 µg/mL,31.25 mg/L,62.5 µg/mL,did not demonstrate efficacy,–
"O=C(/C=C/c1ccccc1)c1cccc(O)c1 [3′-HC, 3′-hydroxychalcone]",> 125 µg/mL,15.6 µg/mL,31.3 µg/mL,31.3 µg/mL,7.8 µg/mL,31.3 µg/mL,7.81 µg/mL,7.8 µg/mL,31.3 µg/mL,15.6 µg/mL,125 µg/mL,7.81 µg/mL,31.3 µg/mL,> 80%,11.9 µg/mL,31.2 µg/mL,15.6 µg/mL,31.25 mg/L,62.5 µg/mL,did not demonstrate efficacy,MIC [11]: 7.8 mg/L; MIC [12]: 0.97 mg/L; biofilm degradation [13]: above 50%
"C[C@@H]1[C@H](O)[C@@H](C)/C=C/C=C/C=C/C=C/C=C/C=C/C=C/[C@H](O[C@@H]2O[C@H](C)[C@@H](O)[C@H](N)[C@@H]2O)C[C@@H]2O[C@](O)(C[C@@H](O)C[C@@H](O)[C@H](O)CC[C@@H](O)C[C@@H](O)CC(=O)O[C@H]1C)C[C@H](O)[C@H]2C(=O)O [AMB, amphotericin B, reference compound]",1 µg/mL,–,0.2 µg/mL,0.5 µg/mL,0.4 µg/mL,1 µg/mL,–,0.1 µg/mL,0.3 µg/mL,0.1 µg/mL,1 µg/mL,–,0.05 µg/mL,–,–,–,–,–,–,–,–
"Clc1ccccc1C(c1ccccc1)(c1ccccc1)n1ccnc1 [CTZ, clotrimazole, reference compound]",> 4 µg/mL,–,0.01 µg/mL,> 2 µg/mL,0.004 µg/mL,> 4 µg/mL,–,0.06 µg/mL,0.1 µg/mL,0.03 µg/mL,> 4 µg/mL,–,0.01 µg/mL,–,–,0.03 µg/mL,0.13 µg/mL,–,0.03 µg/mL,–,cytotoxicity (C33A cell line): did not present cytotoxicity
"OC(Cn1cncn1)(Cn1cncn1)c1ccc(F)cc1F [FCZ, Fluconazole, reference compound]",> 64 µg/mL,–,0.25 µg/mL,> 64 µg/mL,0.5 µg/mL,128 µg/mL,–,32 µg/mL,2 µg/mL,1 µg/mL,> 64 µg/mL,–,0.5 µg/mL,–,–,0.5 µg/mL,32 µg/mL,–,0.5 µg/mL,–,"cytotoxicity (C33A cell line): did not present cytotoxicity; health indexes vs infection control group (C. albicans ATCC 90028; larvae infected with C. albicans ATCC 90028, all doses, FCZ 350 mg/L): statistically different from the infection control group; survival curves vs infection control group (C. albicans ATCC 90028; larvae infected with C. albicans ATCC 90028, treated 1 h after infection, five days, FCZ 350 mg/L): statistically different from the infection control group"
